Holding throughout (format): in vivo
Test [1] has as its system Laodelphax striatellus. Briefly: whole plant or invertebrate. As to the method:
(§1) Insecticidal Test Against Laodelphax striatellus
A chemical solution diluted to have a pre-determined concentration was sprayed to young rice plant (breed: Koshihikari) followed by air drying. Then, it was added to a glass test tube (diameter of 3 cm and height of 10 cm) added with water together with ten 3-stage larvae of Laodelphax striatellus. The tube was then covered. The number of living insects was determined after 6 days and the dead insect ratio was calculated. There were two series, i.e., 10 insects per group. Meanwhile, in Table 29, when combination of two types of test chemicals are used (i.e., A and B), the combination of the two types was described as A+B, and in the concentration column (ppm), it was described as concentration of A+concentration of B.

Test [2] deals with Myzus persicae. Briefly: Test Example 12: insecticidal test against Myzus persicae (leaf spray on young white radish plant, single and combined chemicals). The note with it: after 5 days. The method, then:
Insecticidal Test Against Myzus persicae
A chemical solution which has been diluted to have a pre-determined concentration was sprayed on a leaf part of young white radish plant having 1-stage larvae Myzus persicae present thereon. After air drying, they were left to stand in an incubator at 25° C. and the numbers of living insects and dead insects were examined after 5 days (2 series). Meanwhile, in Table 32, when combination of two types of test chemicals are used (i.e., A and B), the combination of the two types was described as A+B, and in the concentration column (ppm), it was described as concentration of A+concentration of B.

The test system of test [3] is Chilo suppressalis. Kind of test: Test Example 10: insecticidal test against Chilo suppressalis (rice stem dip, single and combined chemicals). The following applies: 100 ppm, after 6 days; for pest or weed control at 100 ppm: Chilo suppressalis, 144 h, read-out: Insect death ratio (%). The method, then:
Insecticidal Test Against Chilo suppressalis
A stem part was cut from a rice plant (breed: Koshihikari) cultivated in water and it was immersed in a chemical solution which has been diluted to have a pre-determined concentration. After air drying, it was put into a 9 cm polyethylene cup having a water-wetted filter paper laid on the bottom thereof, and 3-stage larvae of Chilo suppressalis were released and covered. They were left to stand in an incubator at 25° C., and the numbers of living insects and dead insects were examined after 6 days. There were two series, i.e., 5 insects per group. Meanwhile, in Table 30, when combination of two types of test chemicals are used (i.e., A and B), the combination of the two types was described as A+B, and in the concentration column (ppm), it was described as concentration of A+concentration of B.

Test [4] relates to Nilaparvata lugens. Briefly: Test Example 3: insecticidal test against Nilaparvata lugens (spray on young rice plant). The note with it: after 6 days. As to the method: Insecticidal Test Against Nilaparvata lugens
2.5 ml of acetone solution prepared to have the test compound at the pre-determined concentration described in the following Table 28 was sprayed to young rice plant followed by air drying. Then, it was added to a glass bottle (diameter of 3 cm and height of 13 cm) added with water. Ten sensitive Nilaparvata lugens (3-stage) were released therein, and then the bottle was covered with a cap. After keeping them in an incubator at 25° C., the numbers of living insects and dead insects were determined after 6 days (two series). Meanwhile, as a comparative compound, imidacloprid was used.

Test [5] relates to Nilaparvata lugens. The test is described as above. The note with it: after 6 days. This is another data set of the same source.
The test system of test [6] is Laodelphax striatellus. Kind of test: Test Example 14: insecticidal test against Laodelphax striatellus (spray on young rice plant, comparison with Reference Examples 3 and 4). The following applies: after 6 days. As to the method:
as §1
A young rice plant (breed: Koshihikari) was sprayed with a chemical solution which has been diluted to a pre-determined concentration followed by air drying. Then, it was added to a glass test tube (diameter of 3 cm and height of 10 cm) added with water, together with ten Laodelphax striatellus larvae (3-stage), and then the tube was covered with a cap. The number of dead insects was determined after 6 days and the insect death ratio was calculated. There were two series, i.e., 10 insects per group.
Meanwhile, as a comparative compound, Reference Example 3 disclosed in the pamphlet of International Publication No. 2013/144088 and Reference Example 4 with C═O position different from the present compound were used.

Test [7] has as its system Nilaparvata lugens. Briefly: Test Example 13: insecticidal test against Nilaparvata lugens using paddy field rice cultivating box (granule treatment). The following applies: for Adult insect death ratio (%): adults released 22 days after treatment, after 5 days; for Number of larvaes (number of insects): next generation larvae after 22 days. As to the method:
Insecticidal Test Against Nilaparvata lugens Using Paddy Field Rice Cultivating Box
A rice plant (breed: Koshihikari) cultivated in cultivating box was treated with granules with a pre-determined chemical amount, and it was transplanted in two pots, i.e., four plants per 1/5000a pot. Twenty-two days after the treatment, 10 female adults of Nilaparvata lugens were released and the young plants were covered with a mesh. Then, the insect death ratio was determined after 5 days. In addition, the number of the next generation larvae was determined after 22 days. There were two series. Meanwhile, in Table 33, when combination of two types of test chemicals (i.e., A and B), the combination of the two types was described as A+B, and in the chemical amount column (g a.i./box), it was described as chemical amount of A+chemical amount of B.

The test system of test [8] is Pyricularia oryzae. Briefly: whole plant or invertebrate. The note with it: Pyricularia oryzae, 168 h, read-out: Rice blast control value.
Setting [9] is: Laodelphax striatellus, in Oryza sativa, 144 h, after 6 days, read-out: Insect death ratio (%).

The record followed here is patent US9963451B2, “Fused ring pyrimidine compound and pest control agent containing the same” (Mitsui Chemicals Agro, Inc., priority 2013, dated 2018).

Like-named read-outs stand apart in the source and are kept apart here.

For `CN/C(=N/CC1CCOC1)N[N+](=O)[O-]` (centres unmarked) [Dinotefuran, dinotefuran], the pest or weed control at 1 ppm in test [1] (Laodelphax striatellus, in Oryza sativa, 144 h, read-out: Insect death ratio (%)) is 45%. For the same compound, the “Insect death ratio (%)” value in test [2] (10 ppm) is 75%.
Turning to `CCOc1ccc(C(C)(C)COCc2cccc(Oc3ccccc3)c2)cc1` [Ethofenprox, ethofenprox], the “Insect death ratio (%)” value in test [1] (30 ppm, after 6 days) is given as 40%; in test [3], 100%.
As to `N#Cc1nn(-c2c(Cl)cc(C(F)(F)F)cc2Cl)c(N)c1[S+]([O-])C(F)(F)F` (centres unmarked) [Fipronil, fipronil], the pest or weed control at 1 ppm in test [1] (Laodelphax striatellus, in Oryza sativa, 144 h, 1 ppm, after 6 days, read-out: Insect death ratio (%)) worked out at 70%.
Take `N#CCNC(=O)c1cnccc1C(F)(F)F` [Flonicamid, flonicamid]: the “Insect death ratio (%)” value in test [2] (1 ppm) was 79%.
Consider `Cc1cc(O)no1` [Hydroxyisoxazole, hydroxyisoxazole], for which the “Insect death ratio (%)” value in test [1] (600 ppm, after 6 days) stood at 0%.
`O=[N+]([O-])NC1=NCCN1Cc1ccc(Cl)nc1` [Imidacloprid, imidacloprid, reference compound]: the “Sensitive insect death ratio (%)” value in test [4] (10 ppm spray) and in test [4] (100 ppm spray) was 100% each time. Also, the pest or weed control at 0.1 ppm in test [1] (Laodelphax striatellus, in Oryza sativa, 144 h, 0.1 ppm, after 6 days, read-out: Insect death ratio (%)) worked out at 30%. Further, the “Insect death ratio (%)” value in test [2] (1 ppm) was found to be 100%. In addition, the “Resistant insect death ratio (%)” value is reported as 21.7% in test [5] (10 ppm spray) and 50.4% in test [5] (100 ppm spray).
With `CC(C)CC(C)c1sccc1NC(=O)c1cn(C)nc1C(F)(F)F` (centres unmarked) [Penthiopyrad, penthiopyrad], the “Insect death ratio (%)” value in test [2] (100 ppm) amounted to 13%.
Consider `CC1=NNC(=O)N(/N=C/c2cccnc2)C1` [Pymetrozine, pymetrozine], for which the pest or weed control at 10 ppm in test [1] (Laodelphax striatellus, in Oryza sativa, 144 h, 10 ppm, after 6 days, read-out: Insect death ratio (%)) stood at 30%. Moreover, the “Insect death ratio (%)” value in test [2] (1 ppm) is 89%.
For the compound `CC(=O)N1C(=O)N(NCc2cccnc2)Cc2cc(C(F)(C(F)(F)F)C(F)(F)F)ccc21` [Pyrifluquinazon, pyrifluquinazon], the “Insect death ratio (%)” value in test [2] (1 ppm) stood at 100%.
Turning to `CSc1nc2n(Cc3ccc(Br)nc3)ccc(=O)n2n1` [Reference Example 3, 4-((6-bromopyridin-3-yl)methyl)-2-(methylthio)-[1,2,4]triazolo[1,5-a]pyrimidin-7(4H)-one, reference compound], the “Insect death ratio (%)” value in test [6] (100 ppm) is on record as 21%.
`CSc1nc2n(Cc3ccc(Cl)nc3)c(=O)cc(C)n2n1` [Reference Example 4, 4-((6-chloropyridin-3-yl)methyl)-7-methyl-2-(methylthio)-[1,2,4]triazolo[1,5-a]pyrimidin-5(4H)-one, reference compound]: the “Insect death ratio (%)” value in test [6] (1000 ppm) stood at 40%.
As to `C[Si](C)(C)CC(O)(Cn1cncn1)c1ccc(F)cc1` (centres unmarked) [Simeconazole, simeconazole, reference compound], in test [7] (2.25 g a.i./box granules), the “Adult insect death ratio (%)” value is recorded as 20% and the “Number of larvaes (number of insects)” value was 69 number of insects.
For `CN1COCN(Cc2cnc(Cl)s2)/C1=N\[N+](=O)[O-]` [Thiamethoxam, thiamethoxam], in test [2] (1 ppm), the “Insect death ratio (%)” value came out at 94%.
Regarding `CSc1nc2n(Cc3ccc(Cl)nc3)c(C)cc(=O)n2n1` [compound 5, 4-((6-chloropyridin-3-yl)methyl)-5-methyl-2-(methylthio)-[1,2,4]triazolo[1,5-a]pyrimidin-7(4H)-one], the “Sensitive insect death ratio (%)” value in test [4] (10 ppm spray) and in test [4] (100 ppm spray) was 100% each time. Further, the pest or weed control at 3 ppm in test [1] (setting [9]) came out at 20%. Further, the pest or weed control at 100 ppm in test [3] and in test [8] was 0% in each case. For the same compound, the “Insect death ratio (%)” value turned out to be 73% in test [2] (100 ppm) and 100% in test [6] (10 ppm). Moreover, the “Resistant insect death ratio (%)” value is listed as 95% in test [5] (10 ppm spray) and 100% in test [5] (100 ppm spray).
Regarding `CSc1cc2n(Cc3ccc(Cl)nc3)c(C)cc(=O)n2n1` [compound 154, 4-((6-chloropyridin-3-yl)methyl)-5-methyl-2-(methylthio)-pyrazolo[1,5-a]pyrimidin-7(4H)-one], the “Sensitive insect death ratio (%)” value in test [4] (10 ppm spray) and in test [4] (100 ppm spray) was 100% each time. In addition, the pest or weed control at 3 ppm in test [1] (setting [9]) was found to be 40%. Besides, the pest or weed control at 100 ppm in test [3] and in test [8] was 0% each time. Besides, the “Insect death ratio (%)” value in test [2] (10 ppm) is given as 70%; in test [6] (10 ppm), 100%. Besides, the “Adult insect death ratio (%)” value in test [7] (2 g a.i./box granules) came out at 90%. For the same compound, in test [7] (2 g a.i./box granules), the “Number of larvaes (number of insects)” value is 0 number of insects. The “Resistant insect death ratio (%)” value in test [5] (10 ppm spray) and in test [5] (100 ppm spray) was 100% each time.
As to lepimectin, the “Insect death ratio (%)” value in test [2] (10 ppm) worked out at 88%.
Still for that read-out and setting: to milbemectin belongs 86%.
